Among the targets are EphA7 (Homo sapiens, UniProt Q15375); FLT1 (Homo sapiens, UniProt P17948); MST4 (Homo sapiens, UniProt Q9P289).
Common to all, as to conditions: binder
The target of the next assay is T1, AurA (Homo sapiens, UniProt O14965).
T1 sequence (O14965 1-403): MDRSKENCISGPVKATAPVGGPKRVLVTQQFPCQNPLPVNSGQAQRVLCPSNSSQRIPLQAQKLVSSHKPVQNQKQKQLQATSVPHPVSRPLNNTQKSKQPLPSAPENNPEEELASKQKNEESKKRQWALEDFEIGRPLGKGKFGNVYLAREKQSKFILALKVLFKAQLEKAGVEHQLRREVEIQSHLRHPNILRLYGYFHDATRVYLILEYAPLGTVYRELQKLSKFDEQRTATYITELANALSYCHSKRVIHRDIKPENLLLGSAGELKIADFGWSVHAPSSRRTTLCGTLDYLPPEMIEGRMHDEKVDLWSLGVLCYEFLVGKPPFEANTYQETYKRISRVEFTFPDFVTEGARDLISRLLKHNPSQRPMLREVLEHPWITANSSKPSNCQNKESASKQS

The next assay addresses T2, CASK (Homo sapiens, UniProt O14936).
T2 sequence (O14936 1-926): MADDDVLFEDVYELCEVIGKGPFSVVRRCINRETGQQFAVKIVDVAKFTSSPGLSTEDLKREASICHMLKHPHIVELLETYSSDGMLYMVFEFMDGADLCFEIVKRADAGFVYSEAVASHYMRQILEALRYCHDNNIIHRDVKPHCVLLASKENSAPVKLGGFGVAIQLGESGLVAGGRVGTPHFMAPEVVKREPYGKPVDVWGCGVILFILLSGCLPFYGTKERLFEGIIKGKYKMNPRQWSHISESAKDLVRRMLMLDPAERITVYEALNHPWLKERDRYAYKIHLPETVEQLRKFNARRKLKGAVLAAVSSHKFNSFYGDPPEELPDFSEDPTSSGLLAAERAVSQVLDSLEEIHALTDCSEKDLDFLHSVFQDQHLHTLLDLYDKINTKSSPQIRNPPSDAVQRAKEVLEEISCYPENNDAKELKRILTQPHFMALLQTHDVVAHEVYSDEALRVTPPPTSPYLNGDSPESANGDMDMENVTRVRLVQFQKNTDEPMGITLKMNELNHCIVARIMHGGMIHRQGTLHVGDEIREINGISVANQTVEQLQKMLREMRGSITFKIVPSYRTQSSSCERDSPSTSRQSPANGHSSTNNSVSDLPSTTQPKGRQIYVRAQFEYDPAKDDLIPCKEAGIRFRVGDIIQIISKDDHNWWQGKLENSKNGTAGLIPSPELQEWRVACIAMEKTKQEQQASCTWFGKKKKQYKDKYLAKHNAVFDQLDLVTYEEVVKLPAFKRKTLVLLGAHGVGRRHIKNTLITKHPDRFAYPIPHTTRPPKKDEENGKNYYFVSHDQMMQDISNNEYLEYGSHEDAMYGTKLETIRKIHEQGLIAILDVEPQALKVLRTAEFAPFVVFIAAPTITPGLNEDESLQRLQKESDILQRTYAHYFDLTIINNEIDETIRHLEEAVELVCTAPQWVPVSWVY

The target of the next assay is T3, Haspin (Homo sapiens, UniProt Q8TF76).
T3 sequence (Q8TF76 1-798): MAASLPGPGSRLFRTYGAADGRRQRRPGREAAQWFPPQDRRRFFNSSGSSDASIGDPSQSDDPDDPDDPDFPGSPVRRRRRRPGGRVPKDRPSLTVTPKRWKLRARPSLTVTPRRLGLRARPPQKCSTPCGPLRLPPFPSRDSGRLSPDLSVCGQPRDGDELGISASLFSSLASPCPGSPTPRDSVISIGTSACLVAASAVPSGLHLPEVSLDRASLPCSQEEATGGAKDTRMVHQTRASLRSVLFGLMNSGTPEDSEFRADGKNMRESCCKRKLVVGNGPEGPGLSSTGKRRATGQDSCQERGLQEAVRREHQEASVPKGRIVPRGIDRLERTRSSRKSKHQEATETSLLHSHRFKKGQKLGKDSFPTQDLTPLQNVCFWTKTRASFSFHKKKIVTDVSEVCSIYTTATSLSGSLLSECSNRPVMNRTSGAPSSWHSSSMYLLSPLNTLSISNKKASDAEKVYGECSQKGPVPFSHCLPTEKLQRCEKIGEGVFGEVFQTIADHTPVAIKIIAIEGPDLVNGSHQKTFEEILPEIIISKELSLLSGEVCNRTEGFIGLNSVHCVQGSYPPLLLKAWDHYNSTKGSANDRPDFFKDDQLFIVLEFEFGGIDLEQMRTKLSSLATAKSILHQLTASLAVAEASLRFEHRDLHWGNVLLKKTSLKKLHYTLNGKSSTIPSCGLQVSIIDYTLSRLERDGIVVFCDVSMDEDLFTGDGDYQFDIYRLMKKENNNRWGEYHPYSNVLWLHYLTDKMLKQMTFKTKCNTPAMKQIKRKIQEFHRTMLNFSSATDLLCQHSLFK

EphA7, sequence (Q15375 whole entry): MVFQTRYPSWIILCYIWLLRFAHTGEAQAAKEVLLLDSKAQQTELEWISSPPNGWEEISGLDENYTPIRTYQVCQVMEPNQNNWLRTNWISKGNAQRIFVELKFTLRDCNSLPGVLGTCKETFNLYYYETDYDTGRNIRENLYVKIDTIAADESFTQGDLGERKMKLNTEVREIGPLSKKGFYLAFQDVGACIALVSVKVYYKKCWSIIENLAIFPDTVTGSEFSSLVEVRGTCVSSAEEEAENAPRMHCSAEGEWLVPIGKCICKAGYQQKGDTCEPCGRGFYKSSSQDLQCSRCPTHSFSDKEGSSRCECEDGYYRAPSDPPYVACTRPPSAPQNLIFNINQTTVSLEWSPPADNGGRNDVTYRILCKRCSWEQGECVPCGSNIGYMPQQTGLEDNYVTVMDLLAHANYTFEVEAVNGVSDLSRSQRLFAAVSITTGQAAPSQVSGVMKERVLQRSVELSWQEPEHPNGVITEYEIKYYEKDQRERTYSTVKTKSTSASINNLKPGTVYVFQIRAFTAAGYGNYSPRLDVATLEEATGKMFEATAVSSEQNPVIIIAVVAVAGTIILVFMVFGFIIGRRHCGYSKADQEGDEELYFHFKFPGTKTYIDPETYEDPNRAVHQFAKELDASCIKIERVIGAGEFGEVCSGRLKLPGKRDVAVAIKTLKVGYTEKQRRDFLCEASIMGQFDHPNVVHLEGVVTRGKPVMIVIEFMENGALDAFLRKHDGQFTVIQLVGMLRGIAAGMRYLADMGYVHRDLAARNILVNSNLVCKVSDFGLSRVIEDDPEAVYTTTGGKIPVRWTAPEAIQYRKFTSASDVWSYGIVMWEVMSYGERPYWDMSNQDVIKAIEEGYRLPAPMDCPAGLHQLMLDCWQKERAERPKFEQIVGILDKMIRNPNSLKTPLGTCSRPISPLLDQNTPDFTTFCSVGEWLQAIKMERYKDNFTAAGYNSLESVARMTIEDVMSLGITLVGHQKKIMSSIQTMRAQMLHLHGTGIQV
FLT1, sequence (P17948 whole entry): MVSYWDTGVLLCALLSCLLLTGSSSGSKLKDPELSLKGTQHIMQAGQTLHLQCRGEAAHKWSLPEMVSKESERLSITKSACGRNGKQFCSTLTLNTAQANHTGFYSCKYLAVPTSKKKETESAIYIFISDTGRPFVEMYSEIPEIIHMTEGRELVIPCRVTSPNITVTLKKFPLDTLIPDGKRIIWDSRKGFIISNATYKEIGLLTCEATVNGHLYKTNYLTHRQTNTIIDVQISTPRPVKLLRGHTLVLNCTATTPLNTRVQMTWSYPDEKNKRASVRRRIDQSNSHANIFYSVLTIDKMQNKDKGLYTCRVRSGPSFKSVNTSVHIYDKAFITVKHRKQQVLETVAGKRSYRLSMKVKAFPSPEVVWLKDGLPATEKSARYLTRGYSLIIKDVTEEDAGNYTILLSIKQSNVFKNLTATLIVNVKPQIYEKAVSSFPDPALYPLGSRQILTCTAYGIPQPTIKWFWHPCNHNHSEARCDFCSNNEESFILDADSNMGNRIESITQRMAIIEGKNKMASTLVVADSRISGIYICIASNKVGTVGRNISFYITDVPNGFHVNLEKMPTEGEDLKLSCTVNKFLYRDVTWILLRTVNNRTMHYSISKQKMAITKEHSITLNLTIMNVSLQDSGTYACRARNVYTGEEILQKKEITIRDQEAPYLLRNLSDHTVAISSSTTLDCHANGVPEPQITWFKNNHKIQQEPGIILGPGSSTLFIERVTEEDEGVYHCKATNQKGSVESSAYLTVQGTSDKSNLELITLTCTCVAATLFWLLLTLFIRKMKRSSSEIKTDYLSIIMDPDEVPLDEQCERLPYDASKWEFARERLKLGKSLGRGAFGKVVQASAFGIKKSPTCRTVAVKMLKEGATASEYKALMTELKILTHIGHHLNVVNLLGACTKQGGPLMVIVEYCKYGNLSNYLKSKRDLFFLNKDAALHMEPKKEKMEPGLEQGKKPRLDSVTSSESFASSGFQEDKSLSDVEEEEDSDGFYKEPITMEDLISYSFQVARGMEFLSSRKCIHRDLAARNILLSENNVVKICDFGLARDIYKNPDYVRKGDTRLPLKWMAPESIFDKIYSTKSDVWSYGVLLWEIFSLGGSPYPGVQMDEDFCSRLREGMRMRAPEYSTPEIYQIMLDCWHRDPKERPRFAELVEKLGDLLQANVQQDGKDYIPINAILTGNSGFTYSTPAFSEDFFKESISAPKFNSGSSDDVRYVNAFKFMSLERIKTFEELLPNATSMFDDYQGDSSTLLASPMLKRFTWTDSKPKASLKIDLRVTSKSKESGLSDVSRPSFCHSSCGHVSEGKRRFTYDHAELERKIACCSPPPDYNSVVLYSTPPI
MST4, sequence (Q9P289 whole entry): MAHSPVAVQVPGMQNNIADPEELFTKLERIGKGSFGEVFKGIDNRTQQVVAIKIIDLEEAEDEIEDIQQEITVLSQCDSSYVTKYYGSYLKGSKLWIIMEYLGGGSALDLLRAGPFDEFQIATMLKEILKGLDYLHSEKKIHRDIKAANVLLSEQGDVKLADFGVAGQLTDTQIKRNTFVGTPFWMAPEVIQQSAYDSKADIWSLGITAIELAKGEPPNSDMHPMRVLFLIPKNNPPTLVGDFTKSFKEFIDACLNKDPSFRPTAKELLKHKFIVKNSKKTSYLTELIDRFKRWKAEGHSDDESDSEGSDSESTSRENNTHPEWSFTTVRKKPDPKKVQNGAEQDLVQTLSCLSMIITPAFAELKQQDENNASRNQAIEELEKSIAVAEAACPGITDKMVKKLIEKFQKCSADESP

As to `CNc1ncc2cc(-c3ccc(-c4cccc(C)n4)cc3Cl)c(=O)n(CCCCN)c2n1` [compound 20, MRLW5], the “ΔTm MRLW5 (20)” value at AurA was 11.8 °C; on CASK, -0.5 °C; on EphA7 it was 7.7 °C; at FLT1 it was 2.2 °C; on Haspin, -0.4 °C; at MST4, 11.4 °C.
For `CNc1ncc2cc(-c3ccc(-c4cccc(C)n4)cc3Cl)c(=O)n(CCC3CCNCC3)c2n1` [compound 22, 6-(2-Chloro-4-(6-methylpyridin-2-yl)phenyl)-2-(methylamino)-8-(2-(piperidin-4-yl)ethyl)pyrido[2,3-d]pyrimidin-7(8H)-one], the “ΔTm 22” value on AurA was 11.4 °C; on CASK, 0.3 °C; on EphA7, 7.7 °C; at FLT1 it was 2.6 °C; on Haspin, -1.2 °C; at MST4 it was 7.8 °C.
Turning to `CNc1ncc2cc(-c3ccc(-c4cccc(C)n4)cc3Cl)c(=O)n(C[C@H]3CC[C@H](N)CC3)c2n1` [compound 23, 23], the “ΔTm 23” value is 13.1 °C on AurA; -0.4 °C on CASK; 10.4 °C on EphA7; 4.9 °C at FLT1; 1.5 °C on Haspin; 8.2 °C at MST4.
Consider `Cc1cccc(-c2ccc(-c3cc4cnc(NC(CO)CO)nc4n(CCCCN)c3=O)c(Cl)c2)n1` [compound 24, 8-(4-Aminobutyl)-6-(2-chloro-4-(6-methylpyridin-2-yl)phenyl)-2-((1,3-dihydroxypropan-2-yl)amino)pyrido[2,3-d]pyrimidin-7(8H)-one], for which the “ΔTm MR24 (24)” value on AurA is -1.7 °C; at CASK, -0.4 °C; on EphA7, 0.3 °C; on FLT1, 1.0 °C; at Haspin it was -1.4 °C; at MST4, 9.1 °C.
Regarding `Cc1cccc(-c2ccc(-c3cc4cnc(NCCCc5ccc(N)cc5)nc4n(CCCCN)c3=O)c(Cl)c2)n1` [compound 25, 8-(4-Aminobutyl)-2-((3-(4-aminophenyl)propyl)amino)-6-(2-chloro-4-(6-methylpyridin-2-yl)phenyl)pyrido[2,3-d]pyrimidin-7(8H)-one], the “ΔTm 25” value is 1.8 °C on AurA; -0.4 °C at CASK; 5.1 °C on EphA7; 3.5 °C on FLT1; 1.9 °C on Haspin; 9.6 °C at MST4.
As to `Cc1cccc(-c2ccc(-c3cc4cnc(NCCCN5CCOCC5)nc4n(CCCCN)c3=O)c(Cl)c2)n1` [compound 26, MR26], the “ΔTm MR26 (26)” value on AurA was -0.9 °C; on CASK, -0.3 °C; on EphA7, 2.7 °C; at FLT1, 2.7 °C; at Haspin, -1.5 °C; at MST4, 11.2 °C.

For the origin of these results see doi:10.1101/2023.11.24.568596v1 (biorxiv, 2023).
